The test system of experiment [1] is eIF4e phosphorylation in Hela cell line. Put plainly: eIF4e phosphorylation inhibition in Hela cell line. The experiment is classed as cell-based. The settings on record: Homo sapiens, cellular.
For a further experiment, the target named is MNK2 (Homo sapiens, UniProt Q9HBH9). As to the kind of experiment: MNK2 enzymatic assay. It counts as biochemical.
In a further experiment the target is MNK1 (Homo sapiens, UniProt Q9BUB5). As to the kind of experiment: MNK1 enzymatic assay. It counts as biochemical.
Chain of MNK1 (Q9BUB5 whole entry): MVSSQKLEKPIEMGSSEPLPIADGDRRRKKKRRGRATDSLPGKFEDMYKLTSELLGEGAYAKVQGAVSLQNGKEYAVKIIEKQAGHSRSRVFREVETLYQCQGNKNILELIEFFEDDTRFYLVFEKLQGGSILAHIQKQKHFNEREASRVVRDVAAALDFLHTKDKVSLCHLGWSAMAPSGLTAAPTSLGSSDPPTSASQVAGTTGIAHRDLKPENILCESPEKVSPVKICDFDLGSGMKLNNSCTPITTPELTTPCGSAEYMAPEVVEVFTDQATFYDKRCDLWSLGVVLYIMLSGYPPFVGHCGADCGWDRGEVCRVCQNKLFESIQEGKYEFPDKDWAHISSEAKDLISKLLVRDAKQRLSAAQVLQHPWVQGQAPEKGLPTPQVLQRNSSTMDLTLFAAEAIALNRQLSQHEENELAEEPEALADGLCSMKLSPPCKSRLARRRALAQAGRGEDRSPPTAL

Consider 27 compounds from patent publication US10544149B2, “Bicyclic alkyne derivatives and uses thereof” (Agency for Science, Technology and Research, priority 2013, dated 2020).

Where a name gives a salt, the structure may show the parent alone.

Chain of MNK2 (Q9HBH9 whole entry): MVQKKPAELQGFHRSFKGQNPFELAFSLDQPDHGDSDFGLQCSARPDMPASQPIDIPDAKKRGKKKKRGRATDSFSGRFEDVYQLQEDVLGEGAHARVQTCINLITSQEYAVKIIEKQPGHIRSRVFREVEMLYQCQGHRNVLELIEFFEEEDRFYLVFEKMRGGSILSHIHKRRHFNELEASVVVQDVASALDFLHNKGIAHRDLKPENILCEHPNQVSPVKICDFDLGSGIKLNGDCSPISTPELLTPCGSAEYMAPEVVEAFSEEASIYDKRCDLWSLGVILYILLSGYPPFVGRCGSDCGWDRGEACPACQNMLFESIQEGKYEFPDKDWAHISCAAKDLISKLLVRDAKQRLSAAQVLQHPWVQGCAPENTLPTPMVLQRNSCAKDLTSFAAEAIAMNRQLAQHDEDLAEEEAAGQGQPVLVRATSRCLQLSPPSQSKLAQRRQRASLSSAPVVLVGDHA

One may read the IC50 as the concentration that inhibits the measured activity by half. For `Nc1cc(C#Cc2cnn3ccc(-c4ccc(C(=O)N5CCOCC5)cc4F)nc23)ccn1` [Example 123, (4-(3-((2-aminopyridin-4-yl)ethynyl)pyrazolo[1,5-a]pyrimidin-5-yl)-3-fluorophenyl)(morpholino) methanone formic acid salt], the IC50 in experiment [1] is less than 5 µM; against MNK2, less than 0.5 µM; against MNK1, less than 0.5 µM.
Take `Cc1ncccc1Nc1cc(C#Cc2cnc3ccc(-c4ccc(C(=O)N5CCNCC5)cc4)cn23)ccn1` [Example 107, (4-(3-((2-(2-methylpyridin-3-ylamino)pyridin-4-yl)ethynyl)imidazo[1,2-a]pyridin-6-yl)phenyl)(piperazin-1-yl)methanone]: the IC50 is less than 5 µM in experiment [1], less than 0.5 µM against MNK2 and less than 0.5 µM against MNK1.
As for `O=C(c1ccc(-c2ccc3ncc(C#Cc4ccnc(Nc5ccccc5C(F)(F)F)c4)n3n2)cc1)N1CCOCC1` [Example 055, morpholino(4-(3-((2-((2-(trifluoromethyl)phenyl)amino)pyridin-4-yl)ethynyl)imidazo[1,2-b]pyridazin-6-yl)phenyl)methanone], the figures for the IC50 (in experiment [1]; against MNK2; against MNK1) were less than 5 µM, less than 0.5 µM and less than 0.5 µM, respectively.
Take `Cc1ccncc1C#Cc1cnc2ccc(-c3ccc(C(=O)N4CCOCC4)cc3)nn12` [Example 022]: the results for the half-maximal inhibitory concentration (IC50) (in experiment [1]; against MNK2; against MNK1) were less than 5 µM, less than 0.5 µM and less than 0.5 µM, respectively.
With `CC(C)c1ccccc1Nc1cc(C#Cc2cnc3ccc(-c4ccc(C(=O)N5CCOCC5)cc4)nn23)ccn1` [Example 059, (4-(3-((2-(2-isopropylphenylamino)pyridin-4-yl)ethynyl)imidazo[1,2-b]pyridazin-6-yl)phenyl)(morpholino)methanone], the IC50 was less than 5 µM in experiment [1], less than 0.5 µM against MNK2 and less than 0.5 µM against MNK1.
For the compound `Cc1ccc(Nc2cc(C#Cc3cnc4ccc(-c5ccc(C(=O)N6CCOCC6)cc5)nn34)ccn2)cc1` [Example 058, morpholino(4-(3-((2-(p-tolylamino)pyridin-4-yl)ethynyl)imidazo[1,2-b]pyridazin-6-yl)phenyl)methanone], the IC50 in experiment [1] is less than 5 µM; on MNK2, less than 0.5 µM; at MNK1, less than 0.5 µM.
Regarding `O=C(Nc1cc(C#Cc2cnc3ccc(-c4ccc(C(=O)N5CCNCC5)cc4)cn23)ccn1)c1ccccc1` [Example 103, (N-(4-((6-(4-(piperazine-1-carbonyl)phenyl)imidazo[1,2-a]pyridin-3-yl)ethynyl)pyridin-2-yl)benzamide)], the values for the IC50 (in experiment [1]; at MNK2; against MNK1) were less than 5 µM, less than 0.5 µM and less than 0.5 µM, respectively.
`Cc1ncccc1Nc1cc(C#Cc2cnc3ccc(-c4ccc(C(=O)N5CCOCC5)cc4)nn23)ccn1` [Example 047, (4-(3-((2-((2-methylpyridin-3-yl)amino)pyridin-4-yl)ethynyl)imidazo[1,2-b]pyridazin-6-yl)phenyl) (morpholino)methanone]: the figures for the IC50 (in experiment [1]; against MNK2; against MNK1) were less than 5 µM, less than 0.5 µM and less than 0.5 µM, respectively.
With `O=C(c1ccc(-c2ccc3ncc(C#Cc4ccnc(Nc5ccccn5)c4)n3n2)cc1)N1CCOCC1` [Example 048, morpholino(4-(3-((2-(pyridin-2-ylamino)pyridin-4-yl)ethynyl)imidazo[1,2-b]pyridazin-6-yl)phenyl)methanone], the values for the IC50 (in experiment [1]; against MNK2; against MNK1) were less than 5 µM, less than 0.5 µM and less than 0.5 µM, respectively.
On to `CN(c1ccccc1)c1cc(C#Cc2cnc3ccc(-c4ccc(C(=O)N5CCOCC5)cc4)nn23)ccn1` [Example 071, (4-(3-((2-(methyl(phenyl)amino)pyridin-4-yl)ethynyl)imidazo[1,2-b]pyridazin-6-yl)phenyl) (morpholino) methanone], for which the figures for the IC50 (in experiment [1]; against MNK2; on MNK1) were less than 5 µM, less than 0.5 µM and less than 0.5 µM, respectively.
With `CNCC(=O)Nc1cc(C#Cc2cnc3ccc(-c4ccc(C(=O)N5CCOCC5)cc4)nn23)ccn1` [Example 044, 2-(methylamino)-N-(4-((6-(4-(morpholine-4-carbonyl)phenyl)imidazo[1,2-b]pyridazin-3-yl)ethynyl)pyridin-2-yl)acetamide], the results for the IC50 (in experiment [1]; at MNK2; against MNK1) were less than 5 µM, less than 0.5 µM and less than 0.5 µM, respectively.
On to `CN1CCN(C(=O)c2ccc(-c3ccc4ncc(C#Cc5ccccc5)n4n3)cc2)CC1` [Example 002, (4-methylpiperazin-1-yl) (4-(3-(phenylethynyl)imidazo[1,2-b]pyridazin-6-yl)phenyl)methanone], for which the results for the IC50 (in experiment [1]; against MNK2; against MNK1) were less than 5 µM, less than 0.5 µM and less than 0.5 µM, respectively.
`O=C(c1ccc(-c2ccc3ncc(C#Cc4ccc(O)nc4)n3n2)cc1)N1CCOCC1` [Example 040, (4-(3-((6-hydroxypyridin-3-yl)ethynyl)imidazo[1,2-b]pyridazin-6-yl)phenyl) (morpholino)methanone]: the IC50 in experiment [1] is less than 5 µM; against MNK2, less than 0.5 µM; against MNK1, less than 0.5 µM.
In the case of `NC(=O)c1ccc(-c2ccc3ncc(C#Cc4ccnc(N)c4)n3n2)cc1` [Example 074, 4-(3-((2-aminopyridin-4-yl)ethynyl)imidazo[1,2-b]pyridazin-6-yl)benzamide], the IC50 in experiment [1] was less than 5 µM; against MNK2 it was less than 0.5 µM; at MNK1, less than 0.5 µM.
For the compound `O=C(c1ccc(-c2ccc3ncc(C#Cc4ccnc(Nc5cccnc5)c4)n3c2)cc1)N1CCNCC1` [Example 105, piperazin-1-yl(4-(3-((2-(pyridin-3-ylamino)pyridin-4-yl)ethynyl)imidazo[1,2-a]pyridin-6-yl)phenyl)methanone], the IC50 in experiment [1] was less than 5 µM; against MNK2 it was less than 0.5 µM; at MNK1, less than 0.5 µM.
On to `Cc1ccccc1Nc1cc(C#Cc2cnc3ccc(-c4ccc(C(=O)N5CCNCC5)cc4)cn23)ccn1` [Example 106, piperazin-1-yl(4-(3-((2-(o-tolylamino)pyridin-4-yl)ethynyl)imidazo[1,2-a]pyridin-6-yl)phenyl)methanone], for which the IC50 in experiment [1] was less than 5 µM; against MNK2, less than 0.5 µM; on MNK1, less than 0.5 µM.
`Nc1cc(C#Cc2cnc3ccc(-c4ccc(C(=O)N5CCOCC5)cc4)cn23)ccn1` [Example 096]: the results for the 50% inhibitory concentration (IC50) (in experiment [1]; against MNK2; at MNK1) were less than 5 µM, less than 0.5 µM and less than 0.5 µM, respectively.
As for `Nc1cc(C#Cc2cnc3ccc(-c4ccc(C(=O)N5CCOCC5)cc4)cn23)c2cc[nH]c2n1` [Example 098, (4-(3-((6-amino-1H-pyrrolo[2,3-b]pyridin-4-yl)ethynyl)imidazo[1,2-a]pyridin-6-yl)phenyl)(morpholino)methanone], the 50% inhibitory concentration (IC50) in experiment [1] was less than 5 µM; on MNK2, less than 0.5 µM; on MNK1 it was less than 0.5 µM.
As for `C(#Cc1cnc2ccc(-c3ccc(CN4CCOCC4)cc3)nn12)c1ccnc2[nH]ccc12` [Example 075, 4-(4-(3-((1H-pyrrolo[2,3-b]pyridin-4-yl)ethynyl)imidazo[1,2-b]pyridazin-6-yl)benzyl)morpholine], the results for the IC50 (in experiment [1]; on MNK2; at MNK1) were less than 5 µM, less than 0.5 µM and less than 0.5 µM, respectively.
For `Nc1cc(C#Cc2cnc3ccc(-c4ccc(C(=O)N5CCNCC5)cc4)cn23)c2cc[nH]c2n1` [Example 111, (4-(3-((6-amino-1H-pyrrolo[2,3-b]pyridin-4-yl)ethynyl)imidazo[1,2-a]pyridin-6-yl)phenyl)(piperazin-1-yl)methanone], the figures for the IC50 (in experiment [1]; on MNK2; at MNK1) were less than 5 µM, less than 0.5 µM and less than 0.5 µM, respectively.
Regarding `O=C(c1ccc(-c2ccc3ncc(C#Cc4ccnc5[nH]ncc45)n3n2)cc1)N1CCOCC1` [Example 016, (4-(3-((1H-pyrazolo[3,4-b]pyridin-4-yl)ethynyl)imidazo[1,2-b]pyridazin-6-yl)phenyl) (morpholino)methanone], the IC50 in experiment [1] was less than 5 µM; against MNK2, less than 0.5 µM; against MNK1 it was less than 0.5 µM.
In the case of `CC(=O)Nc1cc(C#Cc2cnc3ccc(-c4ccc(C(=O)N5CCOCC5)cc4)nn23)ccn1` [Example 037, N-(4-((6-(4-(morpholine-4-carbonyl)phenyl)imidazo[1,2-b]pyridazin-3-yl)ethynyl)pyridin-2-yl)acetamide], the figures for the concentration for half-maximal inhibition (IC50) (in experiment [1]; against MNK2; at MNK1) were less than 5 µM, less than 0.5 µM and less than 0.5 µM, respectively.
Take `O=C(c1ccc(-c2ccc3ncc(C#Cc4ccnc(Nc5ccccc5)c4)n3n2)cc1)N1CCOCC1` [Example 051, morpholino(4-(3-((2-(phenylamino)pyridin-4-yl)ethynyl)imidazo[1,2-b]pyridazin-6-yl)phenyl)methanone]: the half-maximal inhibitory concentration (IC50) in experiment [1] was less than 5 µM; against MNK2, less than 0.5 µM; on MNK1, less than 0.5 µM.
Regarding `O=C(c1ccc(-c2ccc3ncc(C#Cc4ccnc(Nc5nccs5)c4)n3n2)cc1)N1CCOCC1` [Example 053, morpholino(4-(3-((2-(thiazol-2-ylamino)pyridin-4-yl)ethynyl)imidazo[1,2-b]pyridazin-6-yl)phenyl)methanone], the results for the IC50 (in experiment [1]; against MNK2; against MNK1) were less than 5 µM, less than 0.5 µM and less than 0.5 µM, respectively.
Regarding `O=C(c1ccc(-c2ccc3ncc(C#Cc4ccc5[nH]cnc5c4)n3n2)cc1)N1CCOCC1` [Example 027, (4-(3-((1H-benzo[d]imidazol-5-yl)ethynyl)imidazo[1,2-b]pyridazin-6-yl)phenyl)(morpholino)methanone], the IC50 in experiment [1] was less than 5 µM; against MNK2 it was less than 0.5 µM; against MNK1, less than 0.5 µM.
In the case of `Cc1ccccc1Nc1cc(C#Cc2cnc3ccc(-c4ccc(C(=O)N5CCOCC5)cc4)nn23)ccn1` [Example 052, morpholino(4-(3-((2-(o-tolylamino)pyridin-4-yl)ethynyl)imidazo[1,2-b]pyridazin-6-yl)phenyl)methanone], the figures for the IC50 (in experiment [1]; on MNK2; against MNK1) were less than 5 µM, less than 0.5 µM and less than 0.5 µM, respectively.
`O=C(c1ccc(-c2ccc3ncc(C#Cc4ccnc(-c5ccccc5)c4)n3n2)cc1)N1CCOCC1` [Example 070, morpholino(4-(3-((2-phenylpyridin-4-yl)ethynyl)imidazo[1,2-b]pyridazin-6-yl)phenyl)methanone]: the results for the IC50 (in experiment [1]; at MNK2; against MNK1) were less than 5 µM, less than 0.5 µM and less than 0.5 µM, respectively.
